Positions of bridges follow the written chain, without caps; N, C: chain ends. Non-standard residues stand in square brackets, D forms with d. Residues, ends and D or L forms follow the SMILES beside them. Chains are numbered I, II in the order given. Orn = NCCC[C@H](N)C(=O)O Some results are limits rather than exact numbers.

Assay [1] deals with Human erythroleukemic (HEL) cells. Put plainly: Intracellular calcium measurements in HEL cells (Fura-2). The assay is classed as cell-based. The note with it: for HEL CELLS % Fluor (c): agonistic activity: fluorescence induced by 100 nM of the peptide; for IC50: antagonism of 5 nM NPY-induced calcium signal, read-out: HEL CELLS IC50 (d); for HEL CELLS % INHIB (b): inhibition of increase in HEL cell intracellular calcium induced by 5 nM NPY, 100 nM compound. As to the method: Human erythroleukemic (HEL) cells were loaded with Fura-2 (1 μM for 1 h), washed and then placed in a cuvette (5×10^5 cells in 2.5 ml) and excited simultaneously at 340 and 380 nm in a SLM spectrofluorometer. Fluorescence changes after the addition of NPY and/or peptide analogs were followed by recording emission at 510 nm. Calcium concentrations can be determined through a computer programme by using the ratio of fluorescence 340/380 nm. The agonistic activity of peptide analogs was tested by recording the fluorescence induced upon stimulation of the cells with 100 nM of the peptide and the antagonistic activity by observing the decrease in fluorescence induced by 5 nM NPY in the presence of the analog The results where available are indicated in column (c) of the Table.
The inhibition of the increase in the HEL cell intracellular calcium (induced by 5 nM NPY) achieved by 100 nM concentrations of each compound is shown in column (b) of the Table.
For orientation: A change in cytosolic calcium serves as a functional read-out for many receptors and channels.

The target in assay [2] is NPY receptors in rat brain membranes. Kind of assay: Radioreceptor binding assay (3H-NPY, rat brain membranes). Particulars: 37° C. Here is the method:
Rat brain membranes were incubated with ^3 H-NPY up to equilibrium at 37° C. in the presence of several peptides at different concentrations and in a final volume of 1 ml. Non-specific binding was determined by adding 100 nM of cold NPY. At the end of the incubation period the samples were either filtered (GF/C filter), or 0.5 ml of cold incubation buffer was added and the tubes centrifuged at 15,000 g for 10 min. The supernatant was discarded and the pellet or filters resuspended and counted by liquid scintillation. Results were processed using a computer programme that calculated IC50, Kd, Bmax and Hill coefficient by linear regression. IC50 results where available are shown in column (a) of the Table.

Consider `CC[C@H](C)[C@H](N)C(=O)N[C@@H](CSSC[C@H](NC(=O)[C@@H](N)[C@@H](C)CC)C(=O)N1CCC[C@H]1C(=O)N[C@H](C(=O)N[C@@H](Cc1ccc(O)cc1)C(=O)N[C@@H](CCCNC(=N)N)C(=O)N[C@@H](CC(C)C)C(=O)N[C@@H](CCCNC(=N)N)C(=O)N[C@@H](Cc1ccc(O)cc1)C(N)=O)[C@@H](C)CC)C(=O)N1CCC[C@H]1C(=O)N[C@H](C(=O)N[C@@H](Cc1ccc(O)cc1)C(=O)N[C@@H](CCCNC(=N)N)C(=O)N[C@@H](CC(C)C)C(=O)N[C@@H](CCCNC(=N)N)C(=O)N[C@@H](Cc1ccc(O)cc1)C(N)=O)[C@@H](C)CC` [Example 13, (IleCysProIleTyrArgLeuArgTyr-NH2)2] (I: H-ICPIYRLRY-NH2 / II: H-ICPIYRLRY-NH2; disulfide I:2-II:2 (inferred); N-terminus assumed), for which, in assay [1], the “HEL CELLS % Fluor (c)” value turned out to be 0%, the IC50 came out at 0.75 nM and the “HEL CELLS % INHIB (b)” value is given as 100%. This compound also gave a concentration for half-maximal inhibition (IC50) in assay [2] of 35 nM.
The corresponding values for `CC[C@H](C)[C@H](N)C(=O)N[C@@H](CC(N)=O)C(=O)N1CCC[C@H]1C(=O)NC(CCCC(NC(=O)[C@@H]1CCCN1C(=O)[C@H](CC(N)=O)NC(=O)[C@@H](N)[C@@H](C)CC)C(=O)N[C@@H](Cc1ccc(O)cc1)C(=O)N[C@@H](CCCNC(=N)N)C(=O)N[C@@H](CC(C)C)C(=O)N[C@@H](CCCNC(=N)N)C(=O)N[C@@H](Cc1ccc(O)cc1)C(N)=O)C(=O)N[C@@H](Cc1ccc(O)cc1)C(=O)N[C@@H](CCCNC(=N)N)C(=O)N[C@@H](CC(C)C)C(=O)N[C@@H](CCCNC(=N)N)C(=O)N[C@@H](Cc1ccc(O)cc1)C(N)=O` (stereo partly shown) [Example 14, IleAsnPro TyrArgLeuArgTyr-NH2 (SEQ.ID.No:17) Pim IleAsnPro TyrArgLeuArgTyr-NH2 (SEQ.ID.No:17)] are 0%, 5 nM, 100% and 1.9 nM.
With `CC[C@H](C)[C@H](N)C(=O)N[C@H]1CCC(=O)NCCC[C@@H](C(=O)N[C@@H](Cc2ccc(O)cc2)C(=O)N[C@@H](CCCNC(=N)N)C(=O)N[C@@H](CC(C)C)C(=O)N[C@@H](CCCNC(=N)N)C(=O)N[C@@H](Cc2ccc(O)cc2)C(N)=O)NC(=O)[C@@H]2CCCN2C(=O)[C@@H](NC(=O)[C@@H](N)[C@@H](C)CC)CCC(=O)NCCC[C@@H](C(=O)N[C@@H](Cc2ccc(O)cc2)C(=O)N[C@@H](CCCNC(=N)N)C(=O)N[C@@H](CC(C)C)C(=O)N[C@@H](CCCNC(=N)N)C(=O)N[C@@H](Cc2ccc(O)cc2)C(N)=O)NC(=O)[C@@H]2CCCN2C1=O` [Example 15, IleGluProOrnTyrArgLeuArgTyr-NH2,Cyclic(2,4'),(2',4)-Diamide] (I: H-IEP[Orn]YRLRY-NH2 / II: H-IEP[Orn]YRLRY-NH2; amide I:2-II:4, I:4-II:2; N-terminus assumed), in assay [1], the “HEL CELLS % Fluor (c)” value was found to be 0%, the IC50 came to 0.25 nM and the “HEL CELLS % INHIB (b)” value is reported as 100%. The compound also showed a half-maximal inhibitory concentration (IC50) in assay [2] of less than 0.1 nM.
Turning to `CC[C@H](C)[C@H](N)C(=O)N[C@H]1CC(=O)NCCC[C@@H](C(=O)N[C@@H](Cc2ccc(O)cc2)C(=O)N[C@@H](CCCNC(=N)N)C(=O)N[C@@H](CC(C)C)C(=O)N[C@@H](CCCNC(=N)N)C(=O)N[C@@H](Cc2ccc(O)cc2)C(N)=O)NC(=O)[C@@H]2CCCN2C(=O)[C@@H](NC(=O)[C@@H](N)[C@@H](C)CC)CC(=O)NCCC[C@@H](C(=O)N[C@@H](Cc2ccc(O)cc2)C(=O)N[C@@H](CCCNC(=N)N)C(=O)N[C@@H](CC(C)C)C(=O)N[C@@H](CCCNC(=N)N)C(=O)N[C@@H](Cc2ccc(O)cc2)C(N)=O)NC(=O)[C@@H]2CCCN2C1=O` [Example 16, IleAspProOrnTyrArgLeuArgTyrNH2,Cyclic(2,4'),(2',4)-Diamide] (I: H-IDP[Orn]YRLRY-NH2 / II: H-IDP[Orn]YRLRY-NH2; amide I:2-II:4, I:4-II:2; N-terminus assumed), in assay [1], the “HEL CELLS % Fluor (c)” value is 0%, the IC50 was 0.25 nM and the “HEL CELLS % INHIB (b)” value was found to be 100%. The compound also yielded an IC50 in assay [2] of less than 0.1 nM.

In general, IC50 refers to the concentration needed to halve the response being measured.

(Values after patent publication US5670482A, “Neuropeptide Y antagonists” (Glaxo Wellcome Inc., priority 1992, dated 1997).)
